# What was measured:
# HPK1 protein [1] = molecular target: T1, HPK1 protein (Homo sapiens, UniProt Q92918); experiment: HPK1 enzyme inhibition assay (ADP-Glo); type: biochemical; details: MBP substrate, ATP, ADP-Glo readout
# T1 construct: purchased Signal Chem M23-11G-10
# T1 sequence (Q92918 1-346 limits assumed): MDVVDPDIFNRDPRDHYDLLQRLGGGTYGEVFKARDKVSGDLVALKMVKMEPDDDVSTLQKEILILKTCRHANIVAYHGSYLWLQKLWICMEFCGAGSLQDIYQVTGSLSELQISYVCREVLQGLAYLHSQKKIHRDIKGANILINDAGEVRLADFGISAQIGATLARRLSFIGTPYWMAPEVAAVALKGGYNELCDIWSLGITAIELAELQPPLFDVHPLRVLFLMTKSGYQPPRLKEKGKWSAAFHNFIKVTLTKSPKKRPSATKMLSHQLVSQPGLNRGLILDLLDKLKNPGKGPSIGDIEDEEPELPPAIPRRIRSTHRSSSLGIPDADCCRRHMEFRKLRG
# How it was run: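 Recombinant human HPK1 preincubated with compound 60 min at 25 °C, then reaction with MBP (0.2 ug/ul, 2× stock) and ATP (20 μM, 2× stock) 60 min at 25 °C. ADP formed detected by ADP-Glo after ATP depletion and conversion to ATP; IC50 calculated from signal.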
# HPK1 p-SLP-76 = HPK1 p-SLP-76 inhibition assay in human PBMC (HTRF); type: cell-based; details: 6 h compound, anti-CD3 stimulation 20 min
# How it was run: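 Human PBMC starved overnight in 0.5% FBS, treated with compound 6 h at 37° C, then stimulated with anti-CD3 (10 ug/mL final) for 20 min. Lysates analysed for phospho-SLP76 by HTRF after overnight detection-antibody incubation at 25° C.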
# HPK1 protein [2] = molecular target: T2, HPK1 protein (Mus musculus, UniProt P70218); experiment: HPK1 protein degradation in mouse pan T cell (western blot); type: cell-based; details: 18 h incubation
# T2 construct: the CD3+ T cell population was isolated from spleenocytes of mice; endogenous in cells; host or cells: primary mouse splenic CD3+ (pan) T cells
# T2 sequence (P70218 1-827): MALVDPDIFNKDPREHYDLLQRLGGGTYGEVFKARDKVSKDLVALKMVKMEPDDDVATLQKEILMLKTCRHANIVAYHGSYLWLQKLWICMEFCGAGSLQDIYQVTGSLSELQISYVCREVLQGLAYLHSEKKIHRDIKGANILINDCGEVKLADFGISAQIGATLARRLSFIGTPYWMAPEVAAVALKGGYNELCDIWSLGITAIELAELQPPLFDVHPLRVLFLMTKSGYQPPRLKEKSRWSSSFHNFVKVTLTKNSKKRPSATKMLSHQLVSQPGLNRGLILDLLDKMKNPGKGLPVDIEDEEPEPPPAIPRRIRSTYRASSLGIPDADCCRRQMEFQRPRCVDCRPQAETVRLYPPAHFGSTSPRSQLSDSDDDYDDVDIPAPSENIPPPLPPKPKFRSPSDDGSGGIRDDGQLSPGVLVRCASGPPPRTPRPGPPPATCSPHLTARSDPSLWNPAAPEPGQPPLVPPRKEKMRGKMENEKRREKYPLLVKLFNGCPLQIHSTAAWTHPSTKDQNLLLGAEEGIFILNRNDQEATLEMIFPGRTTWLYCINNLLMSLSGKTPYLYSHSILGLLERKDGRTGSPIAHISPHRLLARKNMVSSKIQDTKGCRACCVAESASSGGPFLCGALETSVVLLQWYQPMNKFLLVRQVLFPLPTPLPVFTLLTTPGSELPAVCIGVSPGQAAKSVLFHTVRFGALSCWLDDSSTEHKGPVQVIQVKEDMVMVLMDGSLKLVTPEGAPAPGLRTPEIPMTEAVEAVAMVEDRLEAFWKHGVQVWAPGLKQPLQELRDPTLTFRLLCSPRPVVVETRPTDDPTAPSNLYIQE
# How it was run: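 CD3+ pan T cells were isolated from mouse splenocytes and incubated 18 h with a range of compound concentrations. Lysates were normalised by BCA and run on SDS-PAGE. HPK1 was detected by western blot with an anti-human HPK1 polyclonal antibody, with β-actin as loading control.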
# HPK1 protein [3] = molecular target: T3, HPK1 protein (Homo sapiens, UniProt Q92918); experiment: HPK1 protein degradation in human PBMC (western blot); type: cell-based; details: 18 h incubation
# T3 construct: Frozen human PBMC were purchased from Shanghai OribioTech; host or cells: human PBMC
# How it was run: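 Recovered frozen human PBMC in RPMI1640 exposed to a range of compound concentrations for 18 h. Lysates normalized by BCA and HPK1 level read by western blot with anti-HPK1 polyclonal antibody, β-actin as loading control.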
# T3 sequence (Q92918 whole entry): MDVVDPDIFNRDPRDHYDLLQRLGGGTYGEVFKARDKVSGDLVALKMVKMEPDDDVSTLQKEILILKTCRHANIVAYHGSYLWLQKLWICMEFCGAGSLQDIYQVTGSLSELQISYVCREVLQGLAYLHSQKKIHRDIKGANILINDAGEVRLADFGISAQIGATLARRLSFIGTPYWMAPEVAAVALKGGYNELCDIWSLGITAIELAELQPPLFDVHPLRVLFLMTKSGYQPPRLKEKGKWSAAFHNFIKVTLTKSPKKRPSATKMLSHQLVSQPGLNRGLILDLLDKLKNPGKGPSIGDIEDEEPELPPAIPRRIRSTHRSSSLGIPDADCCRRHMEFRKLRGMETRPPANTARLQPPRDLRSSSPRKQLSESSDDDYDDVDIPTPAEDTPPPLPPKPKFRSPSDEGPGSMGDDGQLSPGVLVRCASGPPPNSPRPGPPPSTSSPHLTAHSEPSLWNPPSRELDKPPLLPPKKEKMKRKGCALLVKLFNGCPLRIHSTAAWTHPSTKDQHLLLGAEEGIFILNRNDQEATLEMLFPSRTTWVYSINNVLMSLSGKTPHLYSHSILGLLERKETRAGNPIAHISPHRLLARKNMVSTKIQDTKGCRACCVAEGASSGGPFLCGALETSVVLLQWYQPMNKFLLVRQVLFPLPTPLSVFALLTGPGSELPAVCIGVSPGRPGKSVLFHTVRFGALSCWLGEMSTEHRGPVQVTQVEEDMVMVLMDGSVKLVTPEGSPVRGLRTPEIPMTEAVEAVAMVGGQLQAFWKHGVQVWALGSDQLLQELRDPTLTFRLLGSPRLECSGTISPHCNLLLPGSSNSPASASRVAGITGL
# [4] = system: IL-2 production in primary mouse CD3+ T cells; experiment: Cytokine measurement: IL-2 production in mouse CD3+ T cells (ELISA); type: cell-based; details: T-cell, plate bound anti-CD3, 40 hrs; for fold induction at 1 µM: 1 uM compound, read-out: IL-2 production Fold change (1 uM); for fold induction at 3 µM: 3 uM compound, read-out: IL-2 production Fold change (3 uM)
# Protocol: Anti-CD3 Ab was used to provide signal 1 to stimulate mouse CD3+ T cells. Effect of compound stimulation on T cells was measure by IL2 ELISA. Briefly, anti-CD3 Ab was coated onto plates overnight. Isolated T cells from mouse splenocytes were incubated with plate bound CD3 in the presence and absence of compound for 40 hrs. After incubation, the supernatant was collected and IL2 level in the supernatant was determined by mouse IL2 ELISA kit.
IC50 (HPK1 protein [1]),IC50 (HPK1 p-SLP-76),Dmax (HPK1 protein [2]),Dmax (HPK1 protein [3]),Compound,fold induction at 1 µM [4],fold induction at 3 µM [4]
10 to 100 nM,300 to 3000 nM,90%,98%,"CCc1c[nH]c2ncc(-c3cccc(N4CCN(CCCN5CCC(c6ccc7c(N8CCC(=O)NC8=O)cccc7c6)CC5)CC4=O)c3)c(Cl)c12 [Example 58, 1-(6-(1-(3-(4-(3-(4-chloro-3-ethyl-1H-pyrrolo[2,3-b]pyridin-5-yl)phenyl)-3-oxopiperazin-1-yl)propyl)piperidin-4-yl)naphthalen-1-yl)dihydropyrimidine-2,4 (1H,3H)-dione]",2.5,2
10 to 100 nM,≤ 300 nM,95%,95%,"O=C1CCC(N2C(=O)c3cc(F)c(N4CCN(CCCS(=O)(=O)N5CCN(c6cccc(-c7cnc8[nH]cc(C9CC9)c8c7Cl)c6)C(=O)C5)CC4)cc3C2=O)C(=O)N1 (stereo not drawn) [Example 101, 5-(4-(3-((4-(3-(4-chloro-3-cyclopropyl-1H-pyrrolo[2,3-b]pyridin-5-yl)phenyl)-3-oxopiperazin-1-yl)sulfonyl)propyl)piperazin-1-yl)-2-(2,6-dioxopiperidin-3-yl)-6-fluoroisoindoline-1,3-dione]",1.7,3.7

Compound,IC50 (HPK1 protein [1]),IC50 (HPK1 p-SLP-76),Dmax (HPK1 protein [2]),Dmax (HPK1 protein [3]),fold induction at 1 µM [4],fold induction at 3 µM [4]
"O=C1CCC(c2ccc(C3CCN(CCCN4CCN(c5cccc(-c6cnc7[nH]cc(C8CC8)c7c6Cl)c5)C(=O)C4)CC3)cc2)C(=O)N1 (stereo not drawn) [Example 73, 3-(4-(1-(3-(4-(3-(4-chloro-3-cyclopropyl-1H-pyrrolo[2,3-b]pyridin-5-yl)phenyl)-3-oxopiperazin-1-yl)propyl)piperidin-4-yl)phenyl)piperidine-2,6-dione]",≤ 10 nM,≤ 300 nM,95%,87%,2,< 0.5
